Starred links: 1 amine or outer side, 2 acyl side, 3 side chain; linkers in the order of their positions; H or OH if unused. Non-standard residues stand in square brackets, D forms with d. Residues, ends and D or L forms follow the SMILES beside them. Trp(βS-Me,4-F) = C[C@@H](c1c[nH]c2cccc(F)c12)[C@H](N)C(=O)O; Bip(4'-COOH) = N[C@@H](Cc1ccc(-c2ccc(C(=O)O)cc2)cc1)C(=O)O; Ala(1-bicyclo(1.1.1)pentyl) = N[C@@H](CC12CC(C1)C2)C(=O)O; dPro(4R-Bzl(4-F)) = O=C(O)[C@H]1C[C@@H](Cc2ccc(F)cc2)CN1; X3 = CC(=O)NCCOc1ccc(C[C@H](N[*:1])C(=O)[*:2])cn1; Ala(pyrimidin-5-yl) = N[C@@H](Cc1cncnc1)C(=O)O; Phe(4-COOH) = N[C@@H](Cc1ccc(C(=O)O)cc1)C(=O)O; Pro(cis-4-F) = O=C(O)[C@@H]1C[C@H](F)CN1; AEF = NCCOc1ccc(C[C@H](N)C(=O)O)cc1; 4Pal = N[C@@H](Cc1ccncc1)C(=O)O; Orn = NCCC[C@H](N)C(=O)O; Dab = NCC[C@H](N)C(=O)O; Dap = NC[C@H](N)C(=O)O; Aib = CC(C)(N)C(=O)O

The assay has as its target T1, IL-1β (Homo sapiens, UniProt P01584).
T1 construct: purchased BioLegend 579404
In words: IL-6 assay in MRC5 cells: inhibition of IL-1β induced IL-6 secretion (AlphaLISA). The format is cell-based. The conditions noted are these: inhibition of IL-1β induced IL-6 secretion in MRC5 cells; read-out: MRC5 IC50. The procedure:
Procedure for IL-6 Assay in MRC5 Cells
The inhibition of IL-1β induced IL-6 secretion was evaluated in MRC5 cells. Recombinant human IL-1β (BioLegend 579404) at 2λ EC80 concentration was prepared in seeding medium. EMEM (ATCC 30-2003) with 0.025% BSA (Sigma A9576), 1×penicillin/streptomycin (Gibco 15070-063), 1×NEAA (Gibco 11140-050), 1×GlutaMax (Gibco 35050-061), and 1×sodium pyruvate (Gibco 11360-070), 20 μL of IL-1β was added to a 384-well collagen-coated plate (Corning 354664) and pre-incubated at ambient temperature for 1 hour with 200 nL of compound dispensed using an ECHO 555 liquid handler. Human lung fibroblast MRC5 cells (ATCC CCL-171) were added at a density of 3000 cells/20 μL per well. The cells were prepared by passaging three times in growth medium, EMEM (ATCC 30-2003) with 10% fetal bovine serum (Gibco 16140-071), 1×penicillin/streptomycin (Gibco 15070-063), 1×NEAA (Gibco 11140-050), 1×GlutaMax (Gibco 35050-061), and 1×sodium pyruvate (Gibco 11360-070) in collagen-coated T175 flasks (Greiner 661950) and harvested in seeding medium after 5 minutes of 0.25% trypsin-EDTA (Gibco 25200-056) digestion. The 384-well collagen-coated plate, containing a final volume of 40 μL, was incubated at 37° C., 5% CO2 overnight. 5 μL of the conditioned medium was transferred to a 384-well AlphaLISA plate (PerkinElmer 6005350) for detection of IL-6 using the human AlphaLISA IL-6 kit (PerkinElmer AL223F) as per the manufacturer's protocol. 20 μL of the acceptor bead/biotinylated antibody mix was added to the 384-well AlphaLISA plate and incubated for 1 hour at ambient temperature. The donor bead mix was protected from light and 25 μL was added to the plate and incubated for 30 minutes at ambient temperature. The AlphaLISA plate was read on an EnVision multimode plate reader (Perkin Elmer model 2104) using the AlphaScreen setting (laser exc at 680 nm and emis at […]). Dose response curves and IC50 values were analyzed using a 4-parameter logistic equation in Spotfire software (Tibco, Palo Alto, CA).

T1 sequence (P01584 117-269): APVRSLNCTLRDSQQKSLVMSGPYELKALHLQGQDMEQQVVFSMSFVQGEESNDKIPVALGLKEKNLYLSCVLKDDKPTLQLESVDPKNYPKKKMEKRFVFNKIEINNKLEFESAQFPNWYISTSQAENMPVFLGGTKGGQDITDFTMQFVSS

As a reminder, the IC50 is the concentration that inhibits the measured activity by half. `C[C@@H](c1c[nH]c2cccc(F)c12)[C@@H]1NC(=O)[C@@H]2C[C@H](F)CN2C(=O)CNC(=O)[C@H](Cc2ccc(C(=O)O)cc2)NC(=O)[C@H](Cc2ccncc2)NC(=O)[C@H](Cc2ccc(-c3ccc(C(=O)O)cc3)cc2)NC(=O)[C@H]2C[C@@H](Cc3ccc(F)cc3)CN2C(=O)CNC(=O)[C@H](CCN)NC(=O)[C@H](CCC(N)=O)NC(=O)[C@H](Cc2ccncc2)NC(=O)C(C)(C)NC(=O)[C@H](Cc2c[nH]c3ccccc23)NC(=O)[C@H](CCC(=O)O)NC(=O)C(C)(C)NC1=O` [Example 2] (cyclo([Bip(4'-COOH)][4Pal][Phe(4-COOH)]G[Pro(cis-4-F)][Trp(βS-Me,4-F)][Aib]EW[Aib][4Pal]Q[Dab]G[dPro(4R-Bzl(4-F))])): the IC50 was 0.023 nM. Take `C[C@@H](c1c[nH]c2cccc(F)c12)[C@@H]1NC(=O)[C@@H]2C[C@H](F)CN2C(=O)CNC(=O)[C@H](Cc2ccc(C(=O)O)cc2)NC(=O)[C@H](Cc2ccncc2)NC(=O)[C@H](Cc2ccc(-c3ccc(C(=O)O)cc3)cc2)NC(=O)[C@H]2C[C@@H](Cc3ccc(F)cc3)CN2C(=O)CNC(=O)[C@H](CO)NC(=O)[C@H](CCC(N)=O)NC(=O)[C@H](Cc2cncnc2)NC(=O)C(C)(C)NC(=O)[C@H](Cc2c[nH]c3ccccc23)NC(=O)[C@H](CCC(=O)O)NC(=O)C(C)(C)NC1=O` [Example 3] (cyclo([Bip(4'-COOH)][4Pal][Phe(4-COOH)]G[Pro(cis-4-F)][Trp(βS-Me,4-F)][Aib]EW[Aib][Ala(pyrimidin-5-yl)]QSG[dPro(4R-Bzl(4-F))])): the IC50 turned out to be 0.037 nM. For the molecule `C[C@@H](c1c[nH]c2cccc(F)c12)[C@@H]1NC(=O)[C@@H]2C[C@H](F)CN2C(=O)CNC(=O)[C@H](Cc2ccc(C(=O)O)cc2)NC(=O)[C@H](Cc2ccncc2)NC(=O)[C@H](Cc2ccc(-c3ccc(C(=O)O)cc3)cc2)NC(=O)[C@H]2C[C@@H](Cc3ccc(F)cc3)CN2C(=O)CNC(=O)[C@H](CCN)NC(=O)[C@H](CCC(N)=O)NC(=O)[C@H](Cc2cncnc2)NC(=O)C(C)(C)NC(=O)[C@H](Cc2c[nH]c3ccccc23)NC(=O)[C@H](CCC(=O)O)NC(=O)C(C)(C)NC1=O` [Example 4] (cyclo([Bip(4'-COOH)][4Pal][Phe(4-COOH)]G[Pro(cis-4-F)][Trp(βS-Me,4-F)][Aib]EW[Aib][Ala(pyrimidin-5-yl)]Q[Dab]G[dPro(4R-Bzl(4-F))])), the half-inhibitory concentration (IC50) was found to be 0.031 nM. Regarding `C[C@@H](c1c[nH]c2cccc(F)c12)[C@@H]1NC(=O)[C@@H]2C[C@H](F)CN2C(=O)CNC(=O)[C@H](Cc2ccc(C(=O)O)cc2)NC(=O)[C@H](Cc2ccncc2)NC(=O)[C@H](Cc2ccc(-c3ccc(C(=O)O)cc3)cc2)NC(=O)[C@H]2C[C@@H](Cc3ccc(F)cc3)CN2C(=O)CNC(=O)[C@H](CCN)NC(=O)[C@H](CCC(N)=O)NC(=O)[C@H](CO)NC(=O)C(C)(C)NC(=O)[C@H](Cc2c[nH]c3ccccc23)NC(=O)[C@H](CO)NC(=O)C(C)(C)NC1=O` [Example 5] (cyclo([Bip(4'-COOH)][4Pal][Phe(4-COOH)]G[Pro(cis-4-F)][Trp(βS-Me,4-F)][Aib]SW[Aib]SQ[Dab]G[dPro(4R-Bzl(4-F))])), the half-inhibitory concentration (IC50) is 0.039 nM.

With `C[C@@H](c1c[nH]c2cccc(F)c12)[C@@H]1NC(=O)[C@@H]2C[C@H](F)CN2C(=O)CNC(=O)[C@H](Cc2ccc(C(=O)O)cc2)NC(=O)[C@H](Cc2ccncc2)NC(=O)[C@H](Cc2ccc(-c3ccc(C(=O)O)cc3)cc2)NC(=O)[C@H]2C[C@@H](Cc3ccc(F)cc3)CN2C(=O)CNC(=O)[C@H](CN)NC(=O)[C@H](CCC(N)=O)NC(=O)[C@H](Cc2cncnc2)NC(=O)C(C)(C)NC(=O)[C@H](Cc2c[nH]c3ccccc23)NC(=O)[C@H](CCC(=O)O)NC(=O)C(C)(C)NC1=O` [Example 7] (cyclo([Bip(4'-COOH)][4Pal][Phe(4-COOH)]G[Pro(cis-4-F)][Trp(βS-Me,4-F)][Aib]EW[Aib][Ala(pyrimidin-5-yl)]Q[Dap]G[dPro(4R-Bzl(4-F))])), the IC50 stood at 0.026 nM. As to `C[C@@H](c1c[nH]c2cccc(F)c12)[C@@H]1NC(=O)[C@@H]2C[C@H](F)CN2C(=O)CNC(=O)[C@H](Cc2ccc(C(=O)O)cc2)NC(=O)[C@H](Cc2ccncc2)NC(=O)[C@H](Cc2ccc(-c3ccc(C(=O)O)cc3)cc2)NC(=O)[C@H]2C[C@@H](Cc3ccc(F)cc3)CN2C(=O)CNC(=O)[C@H](CCCN)NC(=O)[C@H](CCC(N)=O)NC(=O)[C@H](Cc2cncnc2)NC(=O)C(C)(C)NC(=O)[C@H](Cc2c[nH]c3ccccc23)NC(=O)[C@H](CCC(=O)O)NC(=O)C(C)(C)NC1=O` [Example 8] (cyclo([Bip(4'-COOH)][4Pal][Phe(4-COOH)]G[Pro(cis-4-F)][Trp(βS-Me,4-F)][Aib]EW[Aib][Ala(pyrimidin-5-yl)]Q[Orn]G[dPro(4R-Bzl(4-F))])), the IC50 turned out to be 0.026 nM. Take `C[C@@H](c1c[nH]c2cccc(F)c12)[C@@H]1NC(=O)[C@@H]2C[C@H](F)CN2C(=O)CNC(=O)[C@H](Cc2ccc(C(=O)O)cc2)NC(=O)[C@H](Cc2ccncc2)NC(=O)[C@H](Cc2ccc(-c3ccc(C(=O)O)cc3)cc2)NC(=O)[C@H]2C[C@@H](Cc3ccc(F)cc3)CN2C(=O)CNC(=O)[C@H](CCCCN)NC(=O)[C@H](CCC(N)=O)NC(=O)[C@H](Cc2cncnc2)NC(=O)C(C)(C)NC(=O)[C@H](Cc2c[nH]c3ccccc23)NC(=O)[C@H](CCC(=O)O)NC(=O)C(C)(C)NC1=O` [Example 9] (cyclo([Bip(4'-COOH)][4Pal][Phe(4-COOH)]G[Pro(cis-4-F)][Trp(βS-Me,4-F)][Aib]EW[Aib][Ala(pyrimidin-5-yl)]QKG[dPro(4R-Bzl(4-F))])): the 50% inhibitory concentration (IC50) stood at 0.028 nM. Turning to `CC(=O)NCCOc1ccc(C[C@@H]2NC(=O)[C@H]3C[C@@H](Cc4ccc(F)cc4)CN3C(=O)CNC(=O)[C@H](CCN)NC(=O)[C@H](CCC(N)=O)NC(=O)[C@H](Cc3cncnc3)NC(=O)C(C)(C)NC(=O)[C@H](Cc3c[nH]c4ccccc34)NC(=O)[C@H](CCC(=O)O)NC(=O)C(C)(C)NC(=O)[C@H]([C@@H](C)c3c[nH]c4cccc(F)c34)NC(=O)[C@@H]3C[C@H](F)CN3C(=O)CNC(=O)[C@H](Cc3ccc(C(=O)O)cc3)NC(=O)[C@H](Cc3ccncc3)NC2=O)cc1` [Example 10] (cyclo([AEF](Ac)[4Pal][Phe(4-COOH)]G[Pro(cis-4-F)][Trp(βS-Me,4-F)][Aib]EW[Aib][Ala(pyrimidin-5-yl)]Q[Dab]G[dPro(4R-Bzl(4-F))])), the IC50 was found to be 0.027 nM.

Regarding `CC(=O)NCCOc1ccc(C[C@@H]2NC(=O)[C@H]3C[C@@H](Cc4ccc(F)cc4)CN3C(=O)CNC(=O)[C@H](CN)NC(=O)[C@H](CCC(N)=O)NC(=O)[C@H](Cc3cncnc3)NC(=O)C(C)(C)NC(=O)[C@H](Cc3c[nH]c4ccccc34)NC(=O)[C@H](CCC(=O)O)NC(=O)C(C)(C)NC(=O)[C@H]([C@@H](C)c3c[nH]c4cccc(F)c34)NC(=O)[C@@H]3C[C@H](F)CN3C(=O)CNC(=O)[C@H](Cc3ccc(C(=O)O)cc3)NC(=O)[C@H](Cc3ccncc3)NC2=O)cc1` [Example 11] (cyclo([AEF](Ac)[4Pal][Phe(4-COOH)]G[Pro(cis-4-F)][Trp(βS-Me,4-F)][Aib]EW[Aib][Ala(pyrimidin-5-yl)]Q[Dap]G[dPro(4R-Bzl(4-F))])), the IC50 came out at 0.045 nM.

As to `CC(=O)NCCOc1ccc(C[C@@H]2NC(=O)[C@H]3C[C@@H](Cc4ccc(F)cc4)CN3C(=O)CNC(=O)[C@H](CCN)NC(=O)[C@H](CCC(N)=O)NC(=O)[C@H](Cc3cncnc3)NC(=O)C(C)(C)NC(=O)[C@H](Cc3c[nH]c4ccccc34)NC(=O)[C@H](CCC(=O)O)NC(=O)C(C)(C)NC(=O)[C@H]([C@@H](C)c3c[nH]c4cccc(F)c34)NC(=O)[C@@H]3C[C@H](F)CN3C(=O)CNC(=O)[C@H](Cc3ccc(C(=O)O)cc3)NC(=O)[C@H](Cc3ccncc3)NC2=O)cn1` [Example 12] (cyclo([X3][4Pal][Phe(4-COOH)]G[Pro(cis-4-F)][Trp(βS-Me,4-F)][Aib]EW[Aib][Ala(pyrimidin-5-yl)]Q[Dab]G[dPro(4R-Bzl(4-F))])), the IC50 was found to be 0.072 nM.

On to `C[C@@H](c1c[nH]c2cccc(F)c12)[C@@H]1NC(=O)[C@@H]2C[C@H](F)CN2C(=O)CNC(=O)[C@H](Cc2ccc(C(=O)O)cc2)NC(=O)[C@H](CC23CC(C2)C3)NC(=O)[C@H](Cc2ccc(-c3ccc(C(=O)O)cc3)cc2)NC(=O)[C@H]2C[C@@H](Cc3ccc(F)cc3)CN2C(=O)CNC(=O)[C@H](CCN)NC(=O)[C@H](CCC(N)=O)NC(=O)[C@H](Cc2cncnc2)NC(=O)C(C)(C)NC(=O)[C@H](Cc2c[nH]c3ccccc23)NC(=O)[C@H](CCC(=O)O)NC(=O)C(C)(C)NC1=O` [Example 13] (cyclo([Bip(4'-COOH)][Ala(1-bicyclo(1.1.1)pentyl)][Phe(4-COOH)]G[Pro(cis-4-F)][Trp(βS-Me,4-F)][Aib]EW[Aib][Ala(pyrimidin-5-yl)]Q[Dab]G[dPro(4R-Bzl(4-F))])), for which the IC50 was 0.022 nM.
